Laboratory results taken from patent US6290974A, “Protein ingredient for carrying lipophilic nutrients” (priority 1998, dated 2001).
Counter-ions that a name gives are not always drawn. Like-named read-outs stand apart in the source and are kept apart here.

How the values were obtained:
[1] = target: T1, β-lactoglobulin (β-Lg) (Bos taurus, UniProt P02754); assay: Fluorescence emission/excitation spectra of β-Lg with and without ligand; assay type: binding; settings: for energy transfer between protein tryptophanyl residues and ligand: emission 390 nm; for ligand fluorescence at 412 nm with excitation around 287 nm in presence of β-Lg: 2 μM ligand, 1 μM β-Lg, pH 7.0, 23 °C
T1 construct: Isolation of β-Lg from Whey; from tissue; host or cells: whey (milk), purified by bioselective adsorption on N-retinyl-Celite
T1 sequence (P02754 17-178): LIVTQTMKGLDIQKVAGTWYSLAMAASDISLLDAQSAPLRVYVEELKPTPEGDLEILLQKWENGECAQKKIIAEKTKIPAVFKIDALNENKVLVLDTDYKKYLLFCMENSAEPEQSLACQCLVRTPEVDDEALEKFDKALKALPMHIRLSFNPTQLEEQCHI
Procedure: (§1) Fluorescence spectra were recorded at 23 ° C. with a System 3 Scanning Spectrofluorometer (Optical Technology Devices, Inc., Elmsford, N.Y.) using the ratio mode. Excitation and emission spectra were obtained with 1 μM solutions of β-Lg in 50 mM sodium phosphate, pH 7.0, both in the presence and absence of 2 μM concentrations of the various ligands. Titration of β-Lg with the various ligands was quantified by measuring the fluorescence quenching of the protein tryptophanyl residues (excitation at 287 nm, emission measured at 332 nm). The spectrofluorometer cuvette contained 2.5 ml of 1 μM β-Lg in the phosphate buffer to which 2.5-μl increments of the ligand solution in ethanol or ethyl ether were added with a micropipette. Dufour et al., (1990) FEBS Lett. 277, 223. […] Cogan et al., (1976) Eur. J. Biochem. 65, 71.
(§2) The titration can also be followed by measuring the increase in vitamin D or cholesterol fluorescence that was due to energy transfer from the tryptophanyl residue. Thus, with excitation at 287 nm, emission was measured at 412 nm for vitamin D or 390 nm for cholesterol.
Binding of hydrophobic ligands in proximity to Trp19 results in energy transfer between this protein residue and the ligand, and thus changes in the fluorescence emission spectra can be used to follow complex formation. Fluorescence emission spectra of β-Lg with and without bound vitamin D2 that result from excitation of tryptophanyl residues at 287 nm are shown in FIG. 1.
(§3) Possible binding of vitamin D3 to β-Lg was also investigated by recording the fluorescence emission at 412 nm as a function of the excitation wavelength for vitamin solutions with and without added β-Lg (FIG. 4). […] In a titration experiment, the protein fluorescence at 332 nm with excitation at 287 nm was determined as a function of vitamin D3 concentration (FIG. 3). […] Also, the increase of vitamin D3 fluorescence at 412 nm with excitation at 287 nm for varying vitamin concentrations can be plotted according to Equation [1] as shown in FIG. 5B.
The potential binding of both cholesterol and 7-dehydrocholesterol to β-Lg was examined by fluorescence spectroscopy, essentially as described above for vitamin D (Example 3). […] A plot of the data that were obtained with varying cholesterol concentrations according to Equation [1] from Example 3 was similar to that for vitamin D3, shown in FIG. 5.
Studies were undertaken to evaluate whether other fat-soluble vitamins bind to β-Lg. Fluorescence emission spectra of β-Lg in the presence and absence of vitamin E, vitamin K1, or vitamin K2 were obtained essentially as described in Example 3.

[2] = target: T1, β-lactoglobulin (β-Lg); assay: Fluorescence titration of β-Lg with ligands (Equation [1]; Kd and n); assay type: binding; settings: for molecules bound per molecule of protein: per molecule of protein / β-Lg monomer; for binding affinity, comparative (in words): compared with other ligands of Table 1 or the retinoids
Procedure: as §1, §2
The titration data can be used to evaluate the equilibrium dissociation constant and the number of binding sites per monomer as has been previously described. Cogan et al., (1976) Eur. J. Biochem. 65, 71; Dufour and Haertle, (1991) Biochim. Biophys. Acta 1079, 316; Wang et al., (1997) J. Dairy Sci. 80, 1047. The linear regression equation
(§4) PT a=(1/n)[RT a/(1-a)]-Kd /n
(§5) is used to calculate n, the number of binding sites per molecule of protein and Kd, the apparent dissociation constant. In this equation, PT is total protein concentration, and RT is total ligand concentration.
Cho et al., (1994) J. Biol. Chem. 269, 11102; Dufour and Haertle, (1991) Biochim. Biophys. Acta 1079, 316; Wang et al., (1997) J. Dairy Sci. 80, 1047. […] Cho et al., (1994) J. Biol. Chem. 269, 11102; Dufour and Haertle, (1991) Biochim. Biophys. Acta 1079, 316; Wang et al., (1997) J. Dairy Sci. 80, 1047.
as §3
Dufour and Haertle, (1991) Biochim. Biophys. Acta 1079, 316; Wang et al., (1997) J. Dairy Sci. 80, 1047.
The potential binding of both cholesterol and 7-dehydrocholesterol to β-Lg was examined by fluorescence spectroscopy, essentially as described above for vitamin D (Example 3).
The titration data were used to calculate the equilibrium dissociation constant (Kd) and the number of binding sites per β-Lg monomer (n), as described in Example 3.

[3] = target: T1, β-lactoglobulin (β-Lg); settings: cited from earlier work; for binding to β-Lg reported (in words): in vitro
[4] = target: T1, β-lactoglobulin (β-Lg); assay: Fluorescence titration of β-Lg with linoleic acid, conjugated linoleic acid and its methyl ester (Trp19 enhancement); assay type: binding; settings: 10 μM β-Lg
Text: The titration data can be used to evaluate the equilibrium dissociation constant and the number of binding sites per monomer as has been previously described. […] Biophys. […] The linear regression equation
as §4, §5

[5] = 1 μM β-Lg, 50 mM phosphate pH 7.0, 23 °C, triplicate titrations (vitamin D2: five; ergosterol: single)
[6] = Kd, Table 2, β-Lg titration as in Example 3
[7] = β-Lg titration as in Example 3, read-out: Kd, Table 2
[8] = 1 μM β-Lg, 50 mM phosphate pH 7.0, 23 °C, triplicate titrations (vitamin D2: five; ergosterol: single), read-out: Kd (apparent dissociation constant), Table 1

CC(C)CCC[C@@H](C)[C@H]1CC[C@H]2[C@@H]3CC=C4C[C@@H](O)CC[C@]4(C)[C@H]3CC[C@]12C [Cholesterol, cholesterol]
energy transfer between protein tryptophanyl residues and ligand [1]: energy was transferred | Kd [2]: 34.9 nM | n (number of binding sites per molecule of protein), Table 1 [2, 5]: 2.36 mol/mol of protein | Kd [2, 6]: 34.9 nM | n, Table 2 ([2]; β-Lg titration as in Example 3): 2.4 mol/mol β-LG

CC1=C(C/C=C(\C)CCC[C@H](C)CCC[C@H](C)CCCC(C)C)C(=O)c2ccccc2C1=O [Vitamin K1, 2-methyl-3-phytyl-1,4-napthho-quinone]
β-Lg fluorescence, 280 to 300 nm [1]: increase | β-Lg fluorescence, 300 to 360 nm [1]: quenched | n values, molecules bound per β-Lg monomer (Example 6) [2]: 1.9 | molecules bound per molecule of protein [2]: ~2 molecules | Kd ([2]; read-out: Kd values (Example 6)): 90 nM | Kd ([2]; read-out: order of magnitude of Kd (Example 6)): ~1 nM | n, Table 2 ([2]; β-Lg titration as in Example 3): 1.9 mol/mol β-LG | Kd [2, 7]: 90 nM

CCCCCCCCCCCCCCCC(=O)O [Palmitic acid]
Kd [2, 6]: 490 nM | n, Table 2 ([2]; β-Lg titration as in Example 3): 1.2 mol/mol β-LG

CC1=C(/C=C/C(C)=C/C=C/C(C)=C/C(=O)O)C(C)(C)CCC1 [Retinoic acid, retinoic acid]
Kd [2, 6]: 17 nM | n, Table 2 ([2]; β-Lg titration as in Example 3): 0.9 mol/mol β-LG

CC(C)[C@@H](C)/C=C/[C@@H](C)[C@H]1CC[C@H]2C3=CC=C4C[C@@H](O)CC[C@]4(C)[C@H]3CC[C@]12C [Ergosterol, ergosterol]
mol bound per mol of protein (Example 4) [2]: 2 mol~mol^-1 | n (number of binding sites per molecule of protein), Table 1 [2, 5]: 2.02 mol/mol of protein | Kd [2, 8]: 6.25 nM | binding affinity, comparative (in words) [2]: significantly greater

C=C1CC[C@H](O)C/C1=C/C=C1\CCC[C@]2(C)[C@@H]([C@H](C)/C=C/[C@H](C)C(C)C)CC[C@@H]12 [Vitamin D2, ergocalciferol]
β-Lg fluorescence, 300 to 360 nm [1]: quenched | ligand fluorescence at 412 nm with excitation around 287 nm in presence of β-Lg [1]: increased | mol bound per mol of protein (Example 4) [2]: 2 mol~mol^-1 | n (number of binding sites per molecule of protein), Table 1 [2, 5]: 2.00 mol/mol of protein | Kd [2, 8]: 4.91 nM | ligand concentration at which fluorescence quenching appeared to reach a maximum ([2]; 1 μM β-Lg, emission 332 nm): ~2 µM | binding affinity, comparative (in words) [2]: significantly greater | affinity of β-Lg relative to that for vitamin A and other retinoids (greater by) ([2]; compared with vitamin A and other retinoids): about 10 fold | n ([2]; quenching at 332 nm, excitation 287 nm, five titrations, 1 μM β-Lg): 2.00±0.16 | Kd ([2]; quenching at 332 nm, excitation 287 nm, five titrations, 1 μM β-Lg, read-out: Kd): 4.91 ± 3.28 nM | n, Table 2 ([2]; β-Lg titration as in Example 3): 2.0 mol/mol β-LG | Kd [2, 7]: 4.9 nM

CCCCC/C=C\C/C=C\CCCCCCCC(=O)O [LA, linoleic acid]
n, Table 3, from Frapin et al. ([3]; From Frapin et al., J. Protein Chem. 12, 443 (1993)): 0.83 mol/mol β-LG | Kd ([3]; From Frapin et al., J. Protein Chem. 12, 443 (1993), read-out: Kd, Table 3, from Frapin et al.): 190 nM | Kd ([4]; 27 °C, read-out: order of Kd (text, Example 7)): ~100 nM | n, Table 3 ([4]; pH 7, 27 °C, enhancement at 332 nm, excitation 287 nm): 1.01 mol/mol β-LG | Kd ([4]; pH 7, 27 °C, enhancement at 332 nm, excitation 287 nm, read-out: Kd, Table 3): 143 nM

C=C1CC[C@H](OS(=O)(=O)O)C/C1=C/C=C1\CCC[C@]2(C)[C@@H]([C@H](C)CCCC(C)C)CC[C@@H]12 [Vitamin D3 sulfate, vitamin D3 sulfate]
Kd [2]: 30.3 nM | mol bound per mol of protein (Example 4) [2]: 2 mol~mol^-1 | n (number of binding sites per molecule of protein), Table 1 [2, 5]: 1.74 mol/mol of protein

CC(C)CCC[C@@H](C)[C@H]1CC[C@H]2C3=CC=C4C[C@@H](O)CC[C@]4(C)[C@H]3CC[C@]12C [7-Dehydrocholesterol, 7-dehydrocholesterol]
energy transfer between protein tryptophanyl residues and ligand [1]: energy was transferred | Kd [2]: 26.7 nM | n (number of binding sites per molecule of protein), Table 1 [2, 5]: 1.65 mol/mol of protein

Cc1c(C)c2c(c(C)c1O)CCC(C)(CCCC(C)CCCC(C)CCCC(C)C)O2 (stereo not drawn) [Vitamin E, α-tocopherol]
β-Lg fluorescence, 280 to 300 nm [1]: increase | β-Lg fluorescence, 300 to 360 nm [1]: no change | n values, molecules bound per β-Lg monomer (Example 6) [2]: 1 | Kd ([2]; Kd values (Example 6)): 91 nM | Kd [2, 6]: 91 nM | Kd ([2]; order of magnitude of Kd (Example 6)): ~1 nM | n, Table 2 ([2]; β-Lg titration as in Example 3): 1.0 mol/mol β-LG

CCCCCCCCCCCCCCCC(=O)OC/C=C(C)/C=C/C=C(C)/C=C/C1=C(C)CCCC1(C)C [Retinyl palmitate (R), Retinyl palmitate]
n, Table 2 ([2]; β-Lg titration as in Example 3): 0.8 mol/mol β-LG

CCCCCCCCCCCCCCCC(=O)OC/C=C(C)/C=C/C=C(C)/C=C/C1=C(C)CCCC1(C)C [Retinyl palmitate (P), Retinyl palmitate]
n, Table 2 ([2]; β-Lg titration as in Example 3): 1.2 mol/mol β-LG

C=C1CC[C@H](O)C/C1=C/C=C1\CCC[C@]2(C)[C@@H]([C@H](C)CCCC(C)C)CC[C@@H]12 [Vitamin D3, cholecalciferol]
ligand fluorescence at 412 nm with excitation around 287 nm in presence of β-Lg [1]: increased intensity | Kd [2]: 36 nM | n (number of binding sites per molecule of protein), Table 1 [2, 5]: 2.01 mol/mol of protein | Kd [2, 6]: 36 nM | molecules bound per molecule of protein [2]: 2 molecules | n, Table 2 ([2]; β-Lg titration as in Example 3): 2.0 mol/mol β-LG

CC1=CC(=O)c2ccccc2C1=O [Vitamin K3, menadione]
β-Lg fluorescence, 300 to 360 nm [1]: No quenching | binding in the β-Lg calyx ([1]; inferred from absence of quenching): does not bind

C=CC1=C(C)c2cc3[nH]c(cc4nc(cc5[nH]c(cc1n2)c(C)c5CCC(=O)O)C(CCC(=O)O)=C4C)c(C)c3C=C [protoporphyrin IX]
binding to β-Lg reported (in words) [3]: reported to bind

Cc1c2ccncc2c(C)c2c1[nH]c1ccccc12 [ellipticine]
binding to β-Lg reported (in words) [3]: reported to bind
